Consider 17 molecules from US9765056B2, “Indole and pyrrole compounds, a process for their preparation and pharmaceutical compositions containing them” (LES LABORATOIRES SERVIER, priority 2013, dated 2017).

Test [1] addresses Bcl-2 protein (histag-Bcl-2, UniProtKB P10415) (Homo sapiens (Human), UniProt P10415). Nature of the test: Inhibition of Bcl-2 by the fluorescence polarisation technique. It counts as binding. The conditions noted are these: for IC50: fluorescence polarisation test, method A, or method B where underlined (underlining not visible), read-out: IC50 (nM) Bcl-2 FP. An excerpt:
Inhibition of Bcl-2 by the fluorescence polarisation technique
On the technique in general: Fluorescence polarisation rises when a labelled molecule tumbles more slowly, as on binding a larger partner.

The test system of test [2] is RS4;11 leukaemia tumour line. Description: In vitro cytotoxicity, Microculture Tetrazolium Assay (MTT). Type of test: cell-based. The note with it: Homo sapiens; RS4;11 cells, 48 hours exposure. Here is the method: The cytotoxicity studies were carried out on the RS4;11 leukaemia tumour line.
The cells are distributed onto microplates and exposed to the test compounds for 48 hours. The cell viability is then quantified by a colorimetric assay, the Microculture Tetrazolium Assay (Cancer Res., 1987, 47, 939-942).

Sequence of Bcl-2 protein (P10415 whole entry): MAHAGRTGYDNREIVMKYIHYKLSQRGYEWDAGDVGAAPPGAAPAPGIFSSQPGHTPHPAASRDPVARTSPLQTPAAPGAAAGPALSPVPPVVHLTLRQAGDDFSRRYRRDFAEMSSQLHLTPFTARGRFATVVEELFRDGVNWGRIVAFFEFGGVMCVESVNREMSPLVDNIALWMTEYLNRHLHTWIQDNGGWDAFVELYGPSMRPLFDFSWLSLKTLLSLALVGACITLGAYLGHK

The term IC50 denotes the concentration needed to halve the response being measured. `NC[C@@H]1Cc2ccccc2CN1C(=O)c1ccccc1-n1cc(C(=O)N(c2ccccc2)c2ccccc2)c2ccccc21` [Example 123, 1-{2-[(3S)-3-(Aminomethyl)-1,2,3,4-tetrahydroisoquinoline-2-carbonyl]-phenyl}-N,N-diphenyl-1H-indole-3-carboxamide]: the half-inhibitory concentration (IC50) is 90 nM in test [1] and 2370 nM in test [2].

For `NC[C@@H]1Cc2ccccc2CN1C(=O)c1ccccc1-n1cc(C(=O)N(c2ccccc2)c2ccc(O)cc2)c2ccccc21` [Example 131, 1-{2-[(3S)-3-(Aminomethyl)-1,2,3,4-tetrahydroisoquinoline-2-carbonyl}phenyl]-N-(4-hydroxyphenyl)-N-phenyl-1H-indole-3-carboxamide], the IC50 in test [1] worked out at 18.9 nM; in test [2] it was 469 nM.

On to `NC[C@@H]1Cc2ccccc2CN1C(=O)c1cc2c(cc1-n1nc(C(=O)N(c3ccccc3)c3ccccc3)c3ccccc31)OCO2` [Example 132, 1-{6-[(3S)-3-(Aminomethyl)-1,2,3,4-tetrahydroisoquinoline-2-carbonyl]-2H-1,3-benzodioxol-5-yl}-N,N-diphenyl-1H-indazole-3-carboxamide], for which the IC50 in test [1] is 31.7 nM; in test [2], 1860 nM.

As a reminder, the inhibition is the relative decrease from the control value, in per cent. Consider `COc1cc(-n2nc(C(=O)N(c3ccccc3)c3ccccc3)c3ccccc32)c(C(=O)N2Cc3ccccc3C[C@H]2CN)cc1OCc1ccccc1` [Example 134, 1-{2-[(3S)-3-(Aminomethyl)-1,2,3,4-tetrahydroisoquinoline-2-carbonyl]-4-(benzyloxy)-5-methoxyphenyl}-N,N-diphenyl-1H-indazole-3-carboxamide], for which the inhibition at 22.2 µM in test [1] (@22.2 μM test compound, partial inhibitor, read-out: percentage fluorescence polarisation inhibition (Bcl-2 FP)) came to 72.1%. This molecule also showed an IC50 in test [2] of 2100 nM.

Consider `COc1cc(-n2nc(C(=O)N(c3ccccc3)c3ccccc3)c3ccccc32)c(C(=O)N2Cc3ccccc3C[C@H]2CN)cc1O` [Example 135, 1-{2-[(3S)-3-(Aminomethyl)-1,2,3,4-tetrahydroisoquinoline-2-carbonyl]-4-hydroxy-5-methoxyphenyl}-N,N-diphenyl-1H-indazole-3-carboxamide], for which the IC50 in test [1] amounted to 10.4 nM; in test [2], 461 nM.

For `NC[C@@H]1Cc2ccccc2CN1C(=O)c1cc(N)ccc1-n1nc(C(=O)N(c2ccccc2)c2ccccc2)c2ccccc21` [Example 138, 1-{4-Amino-2-[(3S)-3-(aminomethyl)-1,2,3,4-tetrahydroisoquinoline-2-carbonyl]phenyl}-N,N-diphenyl-1H-indazole-3-carboxamide], the IC50 in test [1] was determined as 52.2 nM; in test [2], 2020 nM.

On to `CNc1ccc(-n2nc(C(=O)N(c3ccccc3)c3ccccc3)c3ccccc32)c(C(=O)N2Cc3ccccc3C[C@H]2CN)c1` [Example 140, 1-{2-[(3S)-3-(Aminomethyl)-1,2,3,4-tetrahydroisoquinoline-2-carbonyl]-4-(methylamino)phenyl}-N,N-diphenyl-1H-indazole-3-carboxamide], for which the IC50 amounted to 25 nM in test [1] and 1840 nM in test [2].

As to `CN(C)c1ccc(-n2nc(C(=O)N(c3ccccc3)c3ccccc3)c3ccccc32)c(C(=O)N2Cc3ccccc3C[C@H]2CN)c1` [Example 141, 1-{2-[(3S)-3-(Aminomethyl)-1,2,3,4-tetrahydroisoquinoline-2-carbonyl]-4-(dimethylamino)phenyl}-N,N-diphenyl-1H-indazole-3-carboxamide], the half-maximal inhibitory concentration (IC50) in test [1] was found to be 56.7 nM; in test [2], 2280 nM.

On to `NC[C@@H]1Cc2ccccc2CN1C(=O)c1cc(NCc2ccccc2)ccc1-n1nc(C(=O)N(c2ccccc2)c2ccccc2)c2ccccc21` [Example 142, 1-{2-[(3S)-3-(Aminomethyl)-1,2,3,4-tetrahydroisoquinoline-2-carbonyl]-4-(benzylamino)phenyl}-N,N-diphenyl-1H-indazole-3-carboxamide], for which the results for the IC50 in test [1] and in test [2] were 70.6 nM and 2290 nM, respectively.

On to `CN(C)C[C@@H]1Cc2ccccc2CN1C(=O)c1ccccc1-n1cc(C(=O)N(c2ccccc2)c2ccc(O)cc2)c2ccccc21` [Example 143, 1-{2-[(3S)-3-[(Dimethylamino)methyl]-1,2,3,4-tetrahydroisoquinoline-2-carbonyl]phenyl}-N-(4-hydroxyphenyl)-N-phenyl-1H-indole-3-carboxamide], for which the IC50 stood at 71.5 nM in test [1] and 533 nM in test [2].

Take `NC[C@@H]1Cc2ccccc2CN1C(=O)c1cc(NC(=O)COc2ccccc2)ccc1-n1nc(C(=O)N(c2ccccc2)c2ccccc2)c2ccccc21` [Example 144, 1-{2-[(3S)-3-(Aminomethyl)-1,2,3,4-tetrahydroisoquinoline-2-carbonyl]-4-(2-phenoxyacetamido)phenyl}-N,N-diphenyl-1H-indazole-3-carboxamide]: the IC50 in test [1] worked out at 35 nM; in test [2] it was 1380 nM.

Take `COc1cc(-n2cc(C(=O)N(c3ccccc3)c3ccc(O)cc3)c3ccccc32)c(C(=O)N2Cc3ccccc3C[C@H]2CN)cc1O` [Example 145, 1-{2-[(3S)-3-(Aminomethyl)-1,2,3,4-tetrahydroisoquinoline-2-carbonyl]-4-hydroxy-5-methoxyphenyl}-N-(4-hydroxyphenyl)-N-phenyl-1H-indole-3-carboxamide]: the half-inhibitory concentration (IC50) was 12.2 nM in test [1] and 1180 nM in test [2].

Regarding `COc1ccc(C(=O)N2Cc3ccccc3C[C@H]2CN)c(-n2cc(C(=O)N(c3ccccc3)c3ccc(O)cc3)c3ccccc32)c1` [Example 146, 1-{2-[(3S)-3-(Aminomethyl)-1,2,3,4-tetrahydroisoquinoline-2-carbonyl]-5-methoxyphenyl}-N-(4-hydroxyphenyl)-N-phenyl-1H-indole-3-carboxamide], the IC50 in test [1] came out at 17.2 nM; in test [2], 346 nM.

With `COc1ccc(C(=O)N2Cc3ccccc3C[C@H]2CN)c(-n2cc(C(=O)N(c3ccccc3)c3ccccc3)c3ccccc32)c1` [Example 147, 1-{2-[(3S)-3-(Aminomethyl)-1,2,3,4-tetrahydroisoquinoline-2-carbonyl]-5-methoxyphenyl}-N,N-diphenyl-1H-indole-3-carboxamide], the IC50 in test [1] is 22.5 nM; in test [2] it was 966 nM.

Regarding `NC[C@@H]1Cc2ccccc2CN1C(=O)c1ccccc1-n1nc(C(=O)N(c2ccccc2)c2ccc(O)cc2)c2ccccc21` [Example 148, 1-{2-[(3S)-3-(Aminomethyl)-1,2,3,4-tetrahydroisoquinoline-2-carbonyl]-phenyl}-N-(4-hydroxyphenyl)-N-phenyl-1H-indazole-3-carboxamide], the 50% inhibitory concentration (IC50) in test [1] stood at 28.3 nM; in test [2], 1170 nM.

For the molecule `NC[C@@H]1Cc2ccccc2CN1C(=O)c1cc(NC(=O)CSc2ccccc2)ccc1-n1nc(C(=O)N(c2ccccc2)c2ccccc2)c2ccccc21` [Example 149, 1-{2-[(3S)-3-(Aminomethyl)-1,2,3,4-tetrahydroisoquinoline-2-carbonyl]-4-[2-(phenylsulphanyl)acetamido]phenyl}-N,N-diphenyl-1H-indazole-3-carboxamide], the IC50 in test [1] was 21.6 nM; in test [2], 340 nM.

`COc1ccc(C(=O)N2Cc3ccccc3C[C@H]2CN)c(-n2nc(C(=O)N(c3ccccc3)c3ccccc3)c3ccccc32)c1` [Example 150, 1-{2-[(3S)-3-(Aminomethyl)-1,2,3,4-tetrahydroisoquinoline-2-carbonyl]-5-methoxyphenyl}-N,N-diphenyl-1H-indazole-3-carboxamide]: the IC50 in test [1] is 51 nM; in test [2], 1320 nM.
